Active and inactive are the calls of the source. The rule behind the calls is not given here.
Legend:
[1] = target: T1, Fatty acid-binding protein, liver (Homo sapiens) (UniProt P07148); test: Displacement of 8-anilino-1-naphthalene-sulfonic acid from FABP1 (unknown origin) at 10 uM incubated for 3 mins by fluorescence based assay relative to control
T1 sequence (whole entry): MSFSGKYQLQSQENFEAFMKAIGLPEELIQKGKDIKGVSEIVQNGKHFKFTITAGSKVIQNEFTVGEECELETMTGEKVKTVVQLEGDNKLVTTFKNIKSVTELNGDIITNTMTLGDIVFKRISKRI

[2] = Metabolic stability in mouse liver microsomes assessed as parent compound remaining incubated for 1 hr by LC-MS analysis; format: ADME, Microsome; settings: read-out: Stability
[3] = Metabolic stability in human liver microsomes assessed as parent compound remaining incubated for 1 hr by LC-MS analysis; format: ADME, Microsome; settings: read-out: Stability
Progesterone receptor = Progesterone receptor (Homo sapiens, UniProt P06401); test: Activation of Gal-DBD and NHRLBD fused PR (unknown origin) transfected in African green monkey CV-1 cells by luciferase reporter assay; format: cell-based
[4] = target: Mineralocorticoid receptor (Homo sapiens, UniProt P08235); test: Activation of Gal-DBD and NHRLBD fused MR (unknown origin) transfected in African green monkey CV-1 cells by luciferase reporter assay; format: cell-based
Glucocorticoid receptor = Glucocorticoid receptor (Homo sapiens, UniProt P04150); test: Activation of Gal-DBD and NHRLBD fused GR (unknown origin) transfected in African green monkey CV-1 cells by luciferase reporter assay; format: cell-based
[5] = target: Free fatty acid receptor 1 (Homo sapiens, UniProt O14842); test: Agonist activity at human FFA1 stably expressed in CHO cells assessed as intracellular calcium flux by FLIPR assay; format: functional, cell-based
[6] = target: Fatty acid-binding protein, heart (Homo sapiens, UniProt P05413); test: Displacement of 8-anilino-1-naphthalene-sulfonic acid from FABP3 (unknown origin) incubated for 3 mins by fluorescence based assay
[7] = Inhibition of PPARbeta/delta (unknown origin) transfected in HepG2 cells incubated for 18 hrs in presence of GW0742 by dual luciferase reporter assay; settings: Homo sapiens, HepG2, 18 h
[8] = Ratio of drug level in ileum to plasma in C57BL/6 mouse at 20 mg/kg, po administered for 5 days and measured after 1 hr post final dose by LC-MS analysis
[9] = target: T2, Bile acid receptor (Mus musculus) (UniProt Q60641); test: Activation of FXR in C57BL/6 mouse ileum assessed as upregulation of FGF15 gene expression in ileum at 20 mg/kg, po administered for 5 days and measured after 1 hr post final dose by RT-PCR analysis; format: organism-based; settings: filed as activator, time 5.0 day
T2 sequence (whole entry): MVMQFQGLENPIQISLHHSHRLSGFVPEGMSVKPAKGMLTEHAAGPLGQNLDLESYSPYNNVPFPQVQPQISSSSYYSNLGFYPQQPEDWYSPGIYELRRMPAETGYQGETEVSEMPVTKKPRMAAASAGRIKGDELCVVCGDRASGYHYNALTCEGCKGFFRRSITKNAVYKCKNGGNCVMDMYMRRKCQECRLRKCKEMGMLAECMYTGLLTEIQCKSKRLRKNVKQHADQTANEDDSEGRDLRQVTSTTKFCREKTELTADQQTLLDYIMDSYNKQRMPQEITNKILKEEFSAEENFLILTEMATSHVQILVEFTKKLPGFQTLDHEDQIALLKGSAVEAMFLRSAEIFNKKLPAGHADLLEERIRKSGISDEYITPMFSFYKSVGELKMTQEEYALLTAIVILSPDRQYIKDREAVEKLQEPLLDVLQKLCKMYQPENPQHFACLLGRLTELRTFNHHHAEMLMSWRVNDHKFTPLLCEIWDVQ

[10] = target: T2, Bile acid receptor (Mus musculus); test: Activation of FXR in C57BL/6 mouse ileum assessed as upregulation of OST-beta gene expression at 20 mg/kg, po administered for 5 days and measured after 1 hr post final dose by RT-PCR analysis; format: organism-based; settings: filed as activator, time 5.0 day
Mus musculus [11] = test: Anti-NASH activity in western diet and CCl4-induced nonalcoholic steatohepatitis C57BL/6 mouse assessed as alleviation of ballooning at 20 mg/kg, po administered for 12 weeks starting from week 8 and change in dose for every 5 days; format: functional, organism-based; settings: time 4.0 weeks
Mus musculus [12] = test: In vivo inhibition of FABP1 in western diet and CCl4-induced nonalcoholic steatohepatitis C57BL/6 mouse assessed as increase in excretion of NEFA in fecal at 20 mg/kg, po administered for 12 weeks starting from week 8 and change in dose for every 5 days; format: functional, organism-based; settings: time 4.0 weeks
Mus musculus [13] = test: Anti-NASH activity in western diet and CCl4-induced nonalcoholic steatohepatitis C57BL/6 mouse assessed as reduction in IL6 level at 20 mg/kg, po administered for 12 weeks starting from week 8 and change in dose for every 5 days by ELISA; format: functional, organism-based; settings: time 4.0 weeks
Mus musculus [14] = test: Anti-NASH activity in western diet and CCl4-induced nonalcoholic steatohepatitis C57BL/6 mouse assessed as reduction in MCP-1 level at 20 mg/kg, po administered for 12 weeks starting from week 8 and change in dose for every 5 days by ELISA; format: functional, organism-based; settings: time 4.0 weeks
Mus musculus [15] = test: Anti-NASH activity in western diet and CCl4-induced nonalcoholic steatohepatitis C57BL/6 mouse assessed as downregulation of IL6 expression level at 20 mg/kg, po administered for 12 weeks starting from week 8 and change in dose for every 5 days by ELISA; format: functional, organism-based; settings: time 4.0 weeks
Mus musculus [16] = test: Antioxidant activity in western diet and CCl4-induced nonalcoholic steatohepatitis C57BL/6 mouse model assessed as increase in SOD level at 20 mg/kg, po administered for 12 weeks starting from week 8 and change in dose for every 5 days; format: functional, organism-based; settings: time 4.0 weeks
Mus musculus [17] = test: Antioxidant activity in western diet and CCl4-induced nonalcoholic steatohepatitis C57BL/6 mouse model assessed as increase in glutathione peroxidase level at 20 mg/kg, po administered for 12 weeks starting from week 8 and change in dose for every 5 days; format: functional, organism-based; settings: time 4.0 weeks
[18] = target: T2, Bile acid receptor (Mus musculus); test: In vivo activation of FXR pathway in western diet and CCl4-induced nonalcoholic steatohepatitis C57BL/6 mouse model assessed as upregulation of FGF15 gene expression in ileum at 20 mg/kg, po administered for 12 weeks starting from week 8 and change in dose for every 5 days by RT-PCR analysis; format: functional, organism-based; settings: time 4.0 weeks
[19] = target: T2, Bile acid receptor (Mus musculus); test: In vivo activation of FXR pathway in western diet and CCl4-induced nonalcoholic steatohepatitis C57BL/6 mouse model assessed as upregulation of OST-beta gene expression in ileum at 20 mg/kg, po administered for 12 weeks starting from week 8 and change in dose for every 5 days by RT-PCR analysis; format: functional, organism-based; settings: time 4.0 weeks
[20] = Subacute toxicity in ICR mouse assessed as changes in body weight at 500 mg/kg/day, po administered for 14 days; format: organism-based; settings: in vivo, 336 h, time 14 day
[21] = Subacute toxicity in ICR mouse assessed as changes in food intake at 500 mg/kg/day, po administered for 14 days; format: organism-based; settings: in vivo, 336 h, time 14 day
[22] = Subacute toxicity in ICR mouse assessed as changes in organ to body weight ratio at 500 mg/kg/day, po administered for 14 days; format: organism-based; settings: in vivo, 336 h, time 14 day
[23] = Subacute toxicity in ICR mouse assessed as changes in serum DBIL level at 500 mg/kg/day, po administered for 14 days; format: organism-based; settings: in vivo, 336 h, time 14 day
[24] = Subacute toxicity in ICR mouse assessed as changes in serum UA level at 500 mg/kg/day, po administered for 14 days; format: organism-based; settings: in vivo, 336 h, time 14 day

Progesterone receptor, sequence (P06401 whole entry, the tested form may be a part): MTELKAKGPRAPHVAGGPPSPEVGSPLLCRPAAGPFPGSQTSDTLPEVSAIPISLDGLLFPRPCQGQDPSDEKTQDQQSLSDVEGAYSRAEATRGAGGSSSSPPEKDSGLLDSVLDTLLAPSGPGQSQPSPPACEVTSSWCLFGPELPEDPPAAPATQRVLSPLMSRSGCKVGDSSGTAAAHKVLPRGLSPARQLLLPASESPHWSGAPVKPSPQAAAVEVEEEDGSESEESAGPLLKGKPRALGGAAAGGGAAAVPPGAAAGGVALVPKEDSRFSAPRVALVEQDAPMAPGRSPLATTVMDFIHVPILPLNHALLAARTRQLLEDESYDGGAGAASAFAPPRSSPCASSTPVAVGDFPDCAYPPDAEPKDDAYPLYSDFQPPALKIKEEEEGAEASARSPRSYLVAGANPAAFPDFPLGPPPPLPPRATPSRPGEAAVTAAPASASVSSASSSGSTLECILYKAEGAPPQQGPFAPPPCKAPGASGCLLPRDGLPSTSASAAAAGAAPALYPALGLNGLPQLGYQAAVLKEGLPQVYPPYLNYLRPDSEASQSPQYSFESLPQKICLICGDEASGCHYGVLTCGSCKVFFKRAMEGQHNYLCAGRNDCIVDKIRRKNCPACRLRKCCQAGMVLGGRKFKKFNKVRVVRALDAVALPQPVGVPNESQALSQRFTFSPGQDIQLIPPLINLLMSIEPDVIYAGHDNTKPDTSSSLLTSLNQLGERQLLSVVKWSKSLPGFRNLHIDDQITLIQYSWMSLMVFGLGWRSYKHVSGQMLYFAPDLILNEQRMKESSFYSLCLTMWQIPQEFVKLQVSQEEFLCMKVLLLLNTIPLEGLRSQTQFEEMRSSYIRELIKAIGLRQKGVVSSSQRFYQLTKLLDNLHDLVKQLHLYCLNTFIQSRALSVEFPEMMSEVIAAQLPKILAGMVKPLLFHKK
Fatty acid-binding protein, heart, sequence (P05413 whole entry): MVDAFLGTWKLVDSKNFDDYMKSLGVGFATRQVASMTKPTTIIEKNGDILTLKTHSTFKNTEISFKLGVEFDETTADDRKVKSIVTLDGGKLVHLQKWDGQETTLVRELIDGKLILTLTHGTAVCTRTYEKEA
Glucocorticoid receptor, sequence (P04150 whole entry, the tested form may be a part): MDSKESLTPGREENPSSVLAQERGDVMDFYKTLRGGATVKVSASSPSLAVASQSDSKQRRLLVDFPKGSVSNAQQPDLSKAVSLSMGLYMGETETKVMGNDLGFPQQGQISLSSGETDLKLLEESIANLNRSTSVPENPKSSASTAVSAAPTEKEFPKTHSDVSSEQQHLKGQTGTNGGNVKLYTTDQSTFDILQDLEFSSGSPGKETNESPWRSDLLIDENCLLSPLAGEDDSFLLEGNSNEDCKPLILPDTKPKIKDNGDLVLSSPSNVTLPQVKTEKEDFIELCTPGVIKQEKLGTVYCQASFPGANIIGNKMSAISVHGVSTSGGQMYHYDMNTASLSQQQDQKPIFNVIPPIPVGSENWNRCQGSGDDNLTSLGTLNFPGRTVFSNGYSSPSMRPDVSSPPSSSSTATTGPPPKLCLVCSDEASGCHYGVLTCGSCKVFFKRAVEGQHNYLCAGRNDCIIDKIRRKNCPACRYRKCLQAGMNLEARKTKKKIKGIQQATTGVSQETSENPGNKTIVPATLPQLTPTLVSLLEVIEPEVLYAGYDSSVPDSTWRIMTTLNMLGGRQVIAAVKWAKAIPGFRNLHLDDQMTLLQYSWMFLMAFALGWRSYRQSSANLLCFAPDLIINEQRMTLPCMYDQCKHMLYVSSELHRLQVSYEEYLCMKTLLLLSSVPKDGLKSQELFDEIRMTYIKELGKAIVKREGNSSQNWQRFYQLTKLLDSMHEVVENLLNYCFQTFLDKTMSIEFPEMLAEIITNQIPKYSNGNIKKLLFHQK
Mineralocorticoid receptor, sequence (P08235 whole entry, the tested form may be a part): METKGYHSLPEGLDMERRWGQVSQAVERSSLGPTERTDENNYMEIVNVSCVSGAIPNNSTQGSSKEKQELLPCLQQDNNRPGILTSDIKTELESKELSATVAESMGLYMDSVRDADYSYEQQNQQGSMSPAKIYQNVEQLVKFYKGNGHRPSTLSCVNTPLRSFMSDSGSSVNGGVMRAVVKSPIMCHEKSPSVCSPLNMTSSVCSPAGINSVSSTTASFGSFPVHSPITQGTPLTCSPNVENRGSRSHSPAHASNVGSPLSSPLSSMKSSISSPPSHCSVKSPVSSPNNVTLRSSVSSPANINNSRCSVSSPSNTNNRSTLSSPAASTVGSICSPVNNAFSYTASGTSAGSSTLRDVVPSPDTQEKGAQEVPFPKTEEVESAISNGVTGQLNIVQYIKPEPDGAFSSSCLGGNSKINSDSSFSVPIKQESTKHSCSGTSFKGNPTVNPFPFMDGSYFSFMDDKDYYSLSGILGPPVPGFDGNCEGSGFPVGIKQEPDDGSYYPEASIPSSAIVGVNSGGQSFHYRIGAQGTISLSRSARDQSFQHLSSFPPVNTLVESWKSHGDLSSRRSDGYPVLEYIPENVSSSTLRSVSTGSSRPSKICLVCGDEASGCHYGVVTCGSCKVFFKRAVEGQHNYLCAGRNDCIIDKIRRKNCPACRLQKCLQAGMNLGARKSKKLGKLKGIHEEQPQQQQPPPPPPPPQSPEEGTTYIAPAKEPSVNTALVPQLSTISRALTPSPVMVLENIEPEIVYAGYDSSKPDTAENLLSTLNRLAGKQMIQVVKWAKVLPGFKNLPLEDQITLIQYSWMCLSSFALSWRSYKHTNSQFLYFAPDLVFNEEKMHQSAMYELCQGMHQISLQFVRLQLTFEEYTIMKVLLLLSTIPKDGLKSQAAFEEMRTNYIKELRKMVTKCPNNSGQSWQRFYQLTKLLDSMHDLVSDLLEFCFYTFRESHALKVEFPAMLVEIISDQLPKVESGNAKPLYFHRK
Free fatty acid receptor 1, sequence (O14842 whole entry): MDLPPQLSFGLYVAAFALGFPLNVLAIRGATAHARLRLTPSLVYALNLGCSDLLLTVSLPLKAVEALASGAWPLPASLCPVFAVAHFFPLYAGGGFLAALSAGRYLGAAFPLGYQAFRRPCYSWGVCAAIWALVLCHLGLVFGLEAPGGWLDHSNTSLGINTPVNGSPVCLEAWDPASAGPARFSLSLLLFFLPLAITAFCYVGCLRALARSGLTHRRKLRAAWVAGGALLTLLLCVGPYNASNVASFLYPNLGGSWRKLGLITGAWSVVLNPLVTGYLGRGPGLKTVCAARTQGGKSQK

Q: With O=C(O)C1(c2cccc(-c3ccc(OCc4c(-c5c(Cl)cccc5Cl)noc4C4CC4)cc3)c2)CC1 as the compound, how does the inhibition [1] read?
A: 83.6%

Q: And the remaining at 1 h [2]?
A: 64.3%

Q: And the remaining at 1 h [3]?
A: 71.6%

Q: And the EC50 (Progesterone receptor)?
A: > 10 µM

Q: What about the EC50 [4] of the same compound?
A: > 10 µM

Q: And the EC50 (Glucocorticoid receptor)?
A: > 10 µM

Q: What about the EC50 [5] of the same compound?
A: > 10 µM

Q: And the IC50 [6]?
A: > 30 µM

Q: And the IC50 [7]?
A: > 10 µM

Q: And the Kp at 120 h [8]?
A: 104

Q: What about the Activity [9] of the same compound?
A: Active

Q: And the Activity [10]?
A: Active

Q: And the Activity (Mus musculus [11])?
A: Active

Q: And the Activity (Mus musculus [12])?
A: Active

Q: And the Activity (Mus musculus [13])?
A: Active

Q: What about the Activity (Mus musculus [14]) of the same compound?
A: Active

Q: What about the Activity (Mus musculus [15]) of the same compound?
A: Active

Q: What about the Activity (Mus musculus [16]) of the same compound?
A: Active

Q: And the Activity (Mus musculus [17])?
A: Active

Q: What about the Activity [18] of the same compound?
A: Active

Q: And the Activity [19]?
A: Active

Q: And the Activity [20]?
A: Non-Toxic

Q: And the Activity [21]?
A: Non-Toxic

Q: What about the Activity [22] of the same compound?
A: Non-Toxic

Q: What about the Activity [23] of the same compound?
A: Non-Toxic

Q: And the Activity [24]?
A: Non-Toxic

— ChEMBL document CHEMBL5338751, “Discovery of the First-in-Class Intestinal Restricted FXR and FABP1 Dual Modulator ZLY28 for the Treatment of Nonalcoholic Fatty Liver Disease” (J Med Chem, 2023)
